Where a name gives a salt, the structure may show the parent alone. Read-outs that look alike come from different tables or passages of the source.

In experiment [1] the target is cdk4/cyclin D1 (Homo sapiens, UniProt P11802). As to the kind of experiment: Cyclin-dependent kinase assay, cdk4/cyclin D1. In kind it is biochemical. The note with it: cyclin D1/cdk4; GST-pRb substrate, 10 µM ATP.
Experiment [2] has as its system NCI-H460. As to the kind of experiment: In vitro proliferation assay (MTT), NCI-H460. In kind it is cell-based. Conditions: Homo sapiens, NCI-H460; MTT assay; value (SD, n) where given; read-out: H-460 Lung (IC50 µM). How it is done: (§1) The proliferation of tumor cells can be measured using a tetrazolium salt-based assay known as the MTT (3-[4,5-Dimethylthiazol-2-yl]-2,5-diphenyltetrazolium bromide) assay. The proliferation test is performed essentially as described by Carmichael et al., Cancer Res. 47: 936-942, 1987. For the assay, the cell lines are plated onto 96 well plates at 1000 to 2500 cells/well (depending on the properties of the individual cell lines), left to attach and recover overnight. […] After 3 days, the cells are incubated with MTT dye (3-[4,5-Dimethylthiazol-2-yl]-2,5-diphenyltetrazolium bromide, Sigma # M5655, 10 mg/ml in Hank's Buffered Saline) to estimate the amount of live cells remaining vs. concentration for the test compounds. Specifically, MTT solution is added to a final concentration of […] and the plates incubated at 37 C for 2 to 4 hr. The MTT and culture medium is then removed from the cultures and 200 µl of DMSO is added to solubilize the dye from the cell layer. The absorbance at 570 nm is determined for each culture using a Spectramax plate reader (Molecular Devices).
(§2) IC50s were determined from the raw data from either the MTT or SRB assays.
All of the cell lines were obtained from American Type Tissue Collection, with the ATCC accession number in parentheticals. MCF-7 and MDA-MB-231 cells were grown in improved minimum essential medium (Biofluids) without phenol red, supplemented with 5 % fetal bovine serum, 0.01 mg/ml gentamicin and 3 mM L-glutamine. All of the other cell lines were grown in RPMI 1640 medium (Life Technologies) supplemented with 5 % fetal bovine serum, 0.01 mg/ml gentamicin and 3 mM L-glutamine TABLE 3

For experiment [3], the system named is Colo-205. The experiment is described as follows: In vitro proliferation assay (MTT), Colo-205. Format: cell-based. Conditions: Homo sapiens, COLO 205; MTT assay; value (SD, n) where given; read-out: Colo-205 Colon (IC50 µM). How it is done: as §1, §2
Experiment [4] concerns the target cdk2/cyclin E (Homo sapiens, UniProt P24941). As to the kind of experiment: Cyclin-dependent kinase assay, cdk2/cyclin E. Conditions: CDK2 IC50, nM, GST-pRb substrate, 10 µM ATP.
Experiment [5] relates to PC-3. The experiment is described as follows: In vitro proliferation assay (MTT), PC-3. In kind it is cell-based, human. Conditions: value (SD, n) where given, read-out: PC-3 Prostate (IC50 µM). The method, boiled down:
(§3)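 Tetrazolium (MTT) reduction measures live cells remaining after 3 days with test compound, following overnight attachment at 1000–2500 cells/well. Dye is taken up in DMSO and read at 570 nm.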

In experiment [6] the test system is MDA-MB-435. The experiment is described as follows: In vitro proliferation assay (MTT), MDA-MB-435. Conditions: value (SD, n) where given, read-out: MB-435 Breast (IC50 µM). In kind it is cell-based, human. In outline:
as §3

In experiment [7] the target is cdk1/cyclin B (Homo sapiens, UniProt P06493). The experiment is described as follows: Cyclin-dependent kinase assay, cdk1/cyclin B. The note with it: CDK1 IC50, nM, Histone H1, 10 µM ATP.
Sequence of cdk1/cyclin B (P06493 whole entry): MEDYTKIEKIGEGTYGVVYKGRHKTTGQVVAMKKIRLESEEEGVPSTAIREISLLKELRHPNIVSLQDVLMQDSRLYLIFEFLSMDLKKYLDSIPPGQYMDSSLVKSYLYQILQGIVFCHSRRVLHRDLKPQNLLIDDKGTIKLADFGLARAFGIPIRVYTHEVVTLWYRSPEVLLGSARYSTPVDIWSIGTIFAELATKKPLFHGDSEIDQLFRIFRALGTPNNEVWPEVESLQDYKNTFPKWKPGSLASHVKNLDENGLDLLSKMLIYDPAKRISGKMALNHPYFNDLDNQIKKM
Sequence of cdk1/cyclin B (P14635 whole entry partner): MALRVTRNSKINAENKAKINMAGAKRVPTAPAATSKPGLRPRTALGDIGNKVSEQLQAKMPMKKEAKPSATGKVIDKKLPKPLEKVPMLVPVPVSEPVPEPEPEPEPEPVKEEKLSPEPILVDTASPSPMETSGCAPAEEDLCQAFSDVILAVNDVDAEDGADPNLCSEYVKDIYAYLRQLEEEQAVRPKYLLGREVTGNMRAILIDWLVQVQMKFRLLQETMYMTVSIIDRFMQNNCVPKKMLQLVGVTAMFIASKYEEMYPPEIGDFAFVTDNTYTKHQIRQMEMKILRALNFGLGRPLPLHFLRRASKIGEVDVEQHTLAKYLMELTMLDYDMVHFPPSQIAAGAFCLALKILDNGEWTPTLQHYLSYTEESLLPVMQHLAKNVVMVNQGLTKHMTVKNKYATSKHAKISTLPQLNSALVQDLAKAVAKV
The mark [8] stands for this setting: Homo sapiens, MDA-MB-435, MTT assay.

Sequence of cdk4/cyclin D1 (P11802 whole entry): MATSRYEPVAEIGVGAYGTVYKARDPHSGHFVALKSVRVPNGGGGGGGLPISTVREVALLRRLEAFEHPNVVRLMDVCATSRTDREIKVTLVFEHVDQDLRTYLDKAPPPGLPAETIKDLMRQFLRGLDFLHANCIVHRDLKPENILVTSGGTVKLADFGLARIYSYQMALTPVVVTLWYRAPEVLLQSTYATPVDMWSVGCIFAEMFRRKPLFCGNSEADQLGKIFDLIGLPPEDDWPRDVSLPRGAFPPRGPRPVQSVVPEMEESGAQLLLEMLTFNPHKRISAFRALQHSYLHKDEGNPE
Sequence of cdk4/cyclin D1 (P24385 whole entry partner): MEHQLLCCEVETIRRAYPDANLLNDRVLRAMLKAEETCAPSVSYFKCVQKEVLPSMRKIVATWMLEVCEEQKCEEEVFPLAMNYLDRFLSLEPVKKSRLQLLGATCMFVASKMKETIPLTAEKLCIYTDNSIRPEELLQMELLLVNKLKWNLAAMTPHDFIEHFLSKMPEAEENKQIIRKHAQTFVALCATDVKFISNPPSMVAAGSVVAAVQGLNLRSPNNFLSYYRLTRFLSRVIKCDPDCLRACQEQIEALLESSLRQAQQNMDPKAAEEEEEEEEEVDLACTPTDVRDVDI

With `CC(CC(=O)N1CCC(Nc2nc(N[C@H]3CC[C@H](N)CC3)nc3c2ncn3C2CCCC2)CC1)CC(C)(C)C` (mixture of isomers) [compound 45, (±)-trans-1-{4-[2-(4-Amino-cyclohexylamino)-9-cyclopentyl-9H-purin-6-ylamino]-piperidin-1-yl}-3,5,5-trimethyl-hexan-1-one dihydrochloride], the IC50 in experiment [1] was 485 nM; in experiment [2], 0.28 µM; in experiment [3], under 0.02 µM; in experiment [4] it was 154 nM; in experiment [5] (Homo sapiens, PC-3, MTT assay), 0.45 µM; in experiment [6] (setting [8]), 0.31 µM. Also, in experiment [7], the IC50 is 76 nM.
As for `CCC(C(=O)N1CCC(Nc2nc(N[C@H]3CC[C@H](N)CC3)nc3c2ncn3C2CCCC2)CC1)c1ccccc1` (relative stereo) [compound 41, trans-1-{4-[2-(4-Amino-cyclohexylamino)-9-cyclopentyl-9H-purin-6-ylamino]-piperidin-1-yl}-2-phenyl-butan-1-one dihydrochloride], the IC50 is 404 nM in experiment [1]; 0.31 µM in experiment [2]; 0.11 µM in experiment [3]; 93 nM in experiment [4]; 0.38 µM in experiment [5] (Homo sapiens, PC-3, MTT assay); 0.3 µM in experiment [6] (setting [8]). The compound also came in with an IC50 in experiment [7] of 59 nM.
In the case of `N[C@H]1CC[C@H](Nc2nc(NC3CCN(C(=O)c4ccc(F)cc4)CC3)c3ncn(C4CCCC4)c3n2)CC1` [compound 1, trans-1-{4-[2-(4-Amino-cyclohexylamino)-9-cyclopentyl-9H-purin-6-ylamino]-piperidin-1-yl}-1-(4-fluoro-phenyl)-methanone dihydrochloride], the IC50 in experiment [1] is 555 nM; in experiment [2] it was over 50 µM; in experiment [3], over 50 µM; in experiment [4], 98 nM; in experiment [5] (Homo sapiens, PC-3, MTT assay), 0.78 µM; in experiment [6] (setting [8]) it was 0.69 µM. The compound also yielded a concentration for half-maximal inhibition (IC50) in experiment [7] of 64 nM.
Regarding `N[C@H]1CC[C@H](Nc2nc(NC3CCN(C(=O)c4ccc(C(F)(F)F)cc4)CC3)c3ncn(C4CCCC4)c3n2)CC1` [compound 2, trans-1-{4-[2-(4-Amino-cyclohexylamino)-9-cyclopentyl-9H-purin-6-ylamino]-piperidin-1-yl}-1-(4-trifluoromethyl-phenyl)-methanone dihydrochloride], the IC50 in experiment [1] was 427 nM; in experiment [2], 0.15 µM; in experiment [3] it was under 0.02 µM; in experiment [4], 92 nM; in experiment [5] (Homo sapiens, PC-3, MTT assay) it was 1.17 µM; in experiment [6] (setting [8]), 0.26 µM. The IC50 in experiment [7] worked out at 48 nM.
For `N[C@H]1CC[C@H](Nc2nc(NC3CCN(C(=O)c4cnc5ccccc5n4)CC3)c3ncn(C4CCCC4)c3n2)CC1` [compound 4, trans-1-{4-[2-(4-Amino-cyclohexylamino)-9-cyclopentyl-9H-purin-6-ylamino]-piperidin-1-yl}-1-quinoxalin-2-yl-methanone dihydrochloride], the half-maximal inhibitory concentration (IC50) is 641 nM in experiment [1]; 0.33 µM in experiment [2]; 0.16 µM in experiment [3]; 339 nM in experiment [4]; 0.72 µM in experiment [5] (Homo sapiens, PC-3, MTT assay); 0.7 µM in experiment [6] (setting [8]). This compound also had a half-maximal inhibitory concentration (IC50) in experiment [7] of 197 nM.
For `N[C@H]1CC[C@H](Nc2nc(NC3CCN(C(=O)c4ccc5c(c4)OCO5)CC3)c3ncn(C4CCCC4)c3n2)CC1` [compound 5, trans-1-{4-[2-(4-Amino-cyclohexylamino)-9-cyclopentyl-9H-purin-6-ylamino]-piperidin-1-yl}-1-benzo[1,3]dioxol-5-yl-methanone dihydrochloride], the IC50 in experiment [2] was 0.27 µM; in experiment [3], under 0.02 µM; in experiment [5] (Homo sapiens, PC-3, MTT assay), 0.66 µM; in experiment [6] (setting [8]), 0.43 µM.
On to `N[C@H]1CC[C@H](Nc2nc(NC3CCN(C(=O)c4cccc(Cl)c4)CC3)c3ncn(C4CCCC4)c3n2)CC1` [compound 6, trans-1-{4-[2-(4-Amino-cyclohexylamino)-9-cyclopentyl-9H-purin-6-ylamino]-piperidin-1-yl}-1-(3-chloro-phenyl)-methanone dihydrochloride], for which the IC50 in experiment [1] is 87 nM; in experiment [2], 0.24 µM; in experiment [3] it was under 0.02 µM; in experiment [4] it was 201 nM; in experiment [5] (MTT assay, dihydrochloride), 1.2 µM; in experiment [6] (MTT assay, dihydrochloride), 0.44 µM. This compound also had an IC50 in experiment [7] of 160 nM.
For the compound `COc1ccccc1C(=O)N1CCC(Nc2nc(N[C@H]3CC[C@H](N)CC3)nc3c2ncn3C2CCCC2)CC1` [compound 7, trans-1-{4-[2-(4-Amino-cyclohexylamino)-9-cyclopentyl-9H-purin-6-ylamino]-piperidin-1-yl}-1-(2-methoxy-phenyl)-methanone dihydrochloride], the IC50 in experiment [1] was 96 nM; in experiment [2], 1.11 µM; in experiment [3], under 0.02 µM; in experiment [4], 487 nM; in experiment [5] (Homo sapiens, PC-3, MTT assay), 2.26 µM; in experiment [6] (setting [8]), 1.34 µM. The IC50 in experiment [7] amounted to 399 nM.
With `COc1ccc(C(=O)N2CCC(Nc3nc(N[C@H]4CC[C@H](N)CC4)nc4c3ncn4C3CCCC3)CC2)cc1` [compound 8, trans-1-{4-[2-(4-Amino-cyclohexylamino)-9-cyclopentyl-9H-purin-6-ylamino]-piperidin-1-yl}-1-(4-methoxy-phenyl)-methanone dihydrochloride], the IC50 is 711 nM in experiment [1]; 0.18 µM in experiment [2]; 0.06 µM in experiment [3]; 137 nM in experiment [4]; 0.86 µM in experiment [5] (Homo sapiens, PC-3, MTT assay); 0.75 µM in experiment [6] (setting [8]). Moreover, in experiment [7], the IC50 came out at 74 nM.
As to `N[C@H]1CC[C@H](Nc2nc(NC3CCN(C(=O)c4cccs4)CC3)c3ncn(C4CCCC4)c3n2)CC1` [compound 10, trans-1-{4-[2-(4-Amino-cyclohexylamino)-9-cyclopentyl-9H-purin-6-ylamino]-piperidin-1-yl}-1-thiophen-2-yl-methanone dihydrochloride], the half-maximal inhibitory concentration (IC50) in experiment [1] is 761 nM; in experiment [2], 0.14 µM; in experiment [3], under 0.02 µM; in experiment [4], 57 nM; in experiment [5] (Homo sapiens, PC-3, MTT assay) it was 1.24 µM; in experiment [6] (setting [8]), 0.8 µM. The compound also returned an IC50 in experiment [7] of 49 nM.
On to `COC(=O)c1ccc(C(=O)N2CCC(Nc3nc(N[C@H]4CC[C@H](N)CC4)nc4c3ncn4C3CCCC3)CC2)cc1` [compound 11, trans-4-(1-{4-[2-(4-Amino-cyclohexylamino)-9-cyclopentyl-9H-purin-6-ylamino]-piperidin-1-yl}-methanoyl)-benzoic acid methyl ester dihydrochloride], for which the concentration for half-maximal inhibition (IC50) in experiment [1] stood at 620 nM; in experiment [2], 0.39 µM; in experiment [3], 0.27 µM; in experiment [4], 78 nM; in experiment [5] (Homo sapiens, PC-3, MTT assay) it was 0.72 µM; in experiment [6] (setting [8]), 0.57 µM. The IC50 in experiment [7] was 46 nM.
As to `N[C@H]1CC[C@H](Nc2nc(NC3CCN(C(=O)/C=C/c4cccc(C(F)(F)F)c4)CC3)c3ncn(C4CCCC4)c3n2)CC1` [compound 44, trans-(E)-1-{4-[2-(4-Amino-cyclohexylamino)-9-cyclopentyl-9H-purin-6-ylamino]-piperidin-1-yl}-3-(3-trifluoromethyl-phenyl)-propenone dihydrochloride], the IC50 was 0.53 µM in experiment [2]; 0.03 µM in experiment [3]; 76 nM in experiment [4]; 0.29 µM in experiment [5] (Homo sapiens, PC-3, MTT assay); 0.22 µM in experiment [6] (setting [8]).
Consider `CC(C)[C@@H]1CC[C@@H](C)C[C@H]1OC(=O)N1CCC(Nc2nc(N[C@H]3CC[C@H](N)CC3)nc3c2ncn3C2CCCC2)CC1` [compound 86, trans-4-[2-(4-Amino-cyclohexylamino)-9-cyclopentyl-9H-purin-6-ylamino]-piperidine-1-carboxylic acid (1R,2S,5R)-2-isopropyl-5-methyl-cyclohexyl ester dihydrochloride], for which the IC50 in experiment [2] worked out at 0.4 µM; in experiment [3], 0.29 µM; in experiment [5] (Homo sapiens, PC-3, MTT assay), 0.69 µM; in experiment [6] (setting [8]) it was 0.52 µM.

The term IC50 denotes the concentration that inhibits the measured activity by half.

For the origin of these results see patent EP1377579B1 (Aventis Pharmaceuticals Inc., priority 2000, dated 2002).
